One assay has as its target mouse TAAR1 (Mus musculus (Mouse), UniProt Q923Y8). The assay is described as follows: Radioligand binding assay on mouse TAAR1. As to conditions: mouse TAAR1 (first value of the cell), HEK-293 membranes; read-out: Ki (μM) mouse/rat. The method, then:
(§1) Construction of TAAR Expression Plasmids and Stably Transfected Cell Lines
(§2) For the construction of expression plasmids the coding sequences of human, rat and mouse TAAR 1 were amplified from genomic DNA essentially as described by Lindemann et al.. The Expand High Fidelity PCR System (Roche Diagnostics) was used with 1.5 mM Mg^2+ and purified PCR products were cloned into pCR2.1-TOPO cloning vector (Invitrogen) following the instructions of the manufacturer. PCR products were subcloned into the pIRESneo2 vector (BD Clontech, Palo Alto, Calif.), and expression vectors were sequence verified before introduction in cell lines.
(§3) HEK293 cells (ATCC #CRL-1573) were cultured essentially as described by Lindemann et al. (2005). For the generation of stably transfected cell lines HEK293 cells were transfected with the pIRESneo2 expression plasmids containing the TAAR coding sequences (described above) with Lipofectamine 2000 (Invitrogen) according to the instructions of the manufacturer, and 24 hrs post transfection the culture medium was supplemented with 1 mg/ml G418 (Sigma, Buchs, Switzerland). After a culture period of about 10 d clones were isolated, expanded and tested for responsiveness to trace amines (all compounds purchased from Sigma) with the cAMP Biotrak Enzyme immunoassay (EIA) System (Amersham) following the non-acetylation EIA procedure provided by the manufacturer.
Radioligand Binding Assay on Mouse TAAR1
Membrane Preparation and Radioligand Binding.
(§4) HEK-293 cells stably expressing mouse TAAR1 were maintained at 37° C. and 5% CO2 in DMEM high glucose medium, containing fetal calf serum (10%, heat inactivated for 30 min at 56° C.), penicillin/streptomycin (1%), and 375 μg/ml geneticin (Gibco). Cells were released from culture flasks using trypsin/EDTA, harvested, washed twice with ice-cold PBS (without Ca^2+ and Mg^2+), pelleted at 1,000 rpm for 5 min at 4° C., frozen and stored at −80° C. Frozen pellets were suspended in 20 ml HEPES-NaOH (20 mM, pH 7.4) containing 10 mM EDTA and homogenized with a Polytron (PT 6000, Kinematica) at 14,000 rpm for 20 s. The homogenate was centrifuged at 48,000×g for 30 min at 4° C. Subsequently, the supernatant was removed and discarded, and the pellet resuspended in 20 ml HEPES-NaOH (20 mM, pH 7.4) containing 0.1 mM EDTA using the Polytron (20 s at 14,000 rpm). This procedure was repeated and the final pellet resuspended in HEPES-NaOH containing 0.1 mM EDTA and homogenized using the Polytron. Typically, aliquots of 2 ml membrane portions were stored at −80° C. With each new membrane batch the dissociation constant (Kd) was determined via a saturation curve. […] All compounds were tested at a broad range of concentrations (10 pM to 10 μM) in duplicates. […] The 96 deep well plates were incubated for 1 hr at 4° C. Incubations were terminated by rapid filtration through Unifilter-96 plates (Packard Instrument Company) and glass filters GF/C (Perkin Elmer) presoaked for 1 hr in polyethylenimine (0.3%) and washed 3 times with 1 ml of cold binding buffer. After addition of 45 μl of Microscint 40 (PerkinElmer) the Unifilter-96 plate was sealed and after 1 hr the ratioactivity counted using a TopCount Microplate Scintillation Counter (Packard Instrument Company).

Another assay has as its target rat TAAR1 (Rattus norvegicus (Rat), UniProt Q923Y9). The assay can be described thus: Radioligand binding assay on rat TAAR1. As to conditions: rat TAAR1 (second value of the cell), HEK-293 membranes; read-out: Ki (μM) mouse/rat. As to the method: as §1, §2, §3
Radioligand Binding Assay on Rat TAAR1
Membrane Preparation and Radioligand Binding
as §4, with “rat” for “mouse”

mouse TAAR1, sequence (Q923Y8 whole entry): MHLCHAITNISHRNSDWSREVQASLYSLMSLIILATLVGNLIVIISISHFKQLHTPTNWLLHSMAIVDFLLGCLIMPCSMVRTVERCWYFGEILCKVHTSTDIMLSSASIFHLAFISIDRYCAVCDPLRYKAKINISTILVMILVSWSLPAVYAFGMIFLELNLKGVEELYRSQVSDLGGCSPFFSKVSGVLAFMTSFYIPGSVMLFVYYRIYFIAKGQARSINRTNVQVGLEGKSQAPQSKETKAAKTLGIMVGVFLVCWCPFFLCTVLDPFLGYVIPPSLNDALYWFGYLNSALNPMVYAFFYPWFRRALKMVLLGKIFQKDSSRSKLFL
rat TAAR1, sequence (Q923Y9 whole entry): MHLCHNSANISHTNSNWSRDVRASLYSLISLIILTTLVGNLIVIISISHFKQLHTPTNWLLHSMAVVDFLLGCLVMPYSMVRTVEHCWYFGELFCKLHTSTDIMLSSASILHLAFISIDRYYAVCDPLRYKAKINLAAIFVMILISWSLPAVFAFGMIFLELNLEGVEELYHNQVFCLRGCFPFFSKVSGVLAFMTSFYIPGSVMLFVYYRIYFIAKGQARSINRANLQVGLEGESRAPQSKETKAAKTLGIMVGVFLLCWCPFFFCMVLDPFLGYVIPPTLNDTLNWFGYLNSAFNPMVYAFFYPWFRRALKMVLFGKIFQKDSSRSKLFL

As for `Clc1ccc(Nc2ccc(C3CNCCO3)cn2)nc1` (racemic) [Example 90, (RS)-5-Chloro-N-(5-(morpholin-2-yl)pyridin-2-yl)pyridin-2-amine], the results for the Ki on mouse TAAR1 and at rat TAAR1 were 0.0196 µM and 0.232 µM, respectively.

Turning to `c1nc(Nc2ccc(C3CNCCO3)cn2)ncc1C1CC1` (racemic) [Example 92, (RS)-5-Cyclopropyl-N-(5-(morpholin-2-yl)pyridin-2-yl)pyrimidin-2-amine], the Ki on mouse TAAR1 amounted to 0.0229 µM; at rat TAAR1 it was 0.275 µM.

As for `Fc1cc(C2CNCCO2)ccc1Nc1ncc(Cl)cn1` (racemic) [Example 96, (RS)-5-Chloro-N-(2-fluoro-4-(morpholin-2-yl)phenyl)pyrimidin-2-amine], the Ki on mouse TAAR1 stood at 0.0062 µM; on rat TAAR1 it was 0.0216 µM.

Turning to `CCc1cnc(Nc2ccc(C3CNCCO3)cc2F)nc1` (racemic) [Example 97, (RS)-5-Ethyl-N-(2-fluoro-4-(morpholin-2-yl)phenyl)pyrimidin-2-amine], the Ki at mouse TAAR1 stood at 0.0029 µM; at rat TAAR1, 0.0056 µM.

`CCOc1cnc(Nc2ccc(C3CNCCO3)cc2F)nc1` (racemic) [Example 100, (RS)-(5-Ethoxy-pyrimidin-2-yl)-(2-fluoro-4-morpholin-2-yl-phenyl)-amine]: the Ki on mouse TAAR1 was found to be 0.0053 µM; at rat TAAR1, 0.0164 µM.

Turning to `CCCc1cnc(Nc2ccc(C3CNCCO3)cc2F)nc1` (racemic) [Example 101, (RS)-(2-Fluoro-4-morpholin-2-yl-phenyl)-(5-propyl-pyrimidin-2-yl)-amine], the Ki on mouse TAAR1 worked out at 0.0032 µM; at rat TAAR1, 0.0041 µM.

On to `Cc1cc(C2CNCCO2)cnc1Nc1ccc(Br)cn1` (racemic) [Example 120, (RS)—N-(5-Bromopyridin-2-yl)-3-methyl-5-(morpholin-2-yl)pyridin-2-amine], for which the Ki on mouse TAAR1 turned out to be 0.0058 µM; on rat TAAR1, 0.0364 µM.

`Fc1cc(C2CNCCO2)ccc1Nc1ncc(C(F)(F)F)cn1` (racemic) [Example 121, (RS)-(2-Fluoro-4-morpholin-2-yl-phenyl)-(5-trifluoromethyl-pyrimidin-2-yl)-amine]: the results for the Ki on mouse TAAR1 and on rat TAAR1 were 0.0058 µM and 0.0096 µM, respectively.

Turning to `Cn1ccc(Nc2ccc(C3CNCCO3)cc2)n1` (racemic) [Example 140, (RS)-(1-Methyl-1H-pyrazol-3-yl)-(4-morpholin-2-yl-phenyl)-amine], the Ki on mouse TAAR1 came to 0.0386 µM; on rat TAAR1, 5.25 µM.

Regarding `Cn1cc(Br)c(Nc2ccc(C3CNCCO3)cc2)n1` (racemic) [Example 143, (RS)-(4-Bromo-1-methyl-1H-pyrazol-3-yl)-(4-morpholin-2-yl-phenyl)-amine], the Ki at mouse TAAR1 was determined as 0.418 µM; at rat TAAR1, 0.284 µM.

In the case of `c1cc(C2CNCCO2)ccc1Nc1ccn(CC2CC2)n1` (racemic) [Example 146, (RS)-(1-Cyclopropylmethyl-1H-pyrazol-3-yl)-(4-morpholin-2-yl-phenyl)-amine], the Ki at mouse TAAR1 is 0.0046 µM; on rat TAAR1, 0.14 µM.

For `FC(F)Cn1ccc(Nc2ccc(C3CNCCO3)cc2)n1` (racemic) [Example 150, (RS)-[1-(2,2-Difluoro-ethyl)-1H-pyrazol-3-yl]-(4-morpholin-2-yl-phenyl)-amine], the Ki at mouse TAAR1 is 0.0134 µM; at rat TAAR1, 0.149 µM.

In the case of `Brc1ccc(Nc2ccc([C@H]3CNCCO3)cc2)nc1` [Example 10, (S)-5-Bromo-N-(4-(morpholin-2-yl)phenyl)pyridin-2-amine], the Ki at mouse TAAR1 worked out at 0.0015 µM; on rat TAAR1, 0.0337 µM.

`FC(F)(F)c1ccc(Nc2ccc([C@H]3CNCCO3)cc2)nc1` [Example 11, (S)—N-(4-(Morpholin-2-yl)phenyl)-5-(trifluoromethyl)pyridin-2-amine]: the Ki at mouse TAAR1 amounted to 0.0015 µM; at rat TAAR1, 0.0233 µM.

On to `COc1cnc(Nc2ccc([C@H]3CNCCO3)cc2)nc1` [Example 12, (5-Methoxy-pyrimidin-2-yl)-((S)-4-morpholin-2-yl-phenyl)-amine], for which the Ki stood at 0.0055 µM on mouse TAAR1 and 0.259 µM on rat TAAR1.

For `c1ccc(CCNc2ccc([C@H]3CNCCO3)cc2)cc1` [Example 13, ((S)-4-Morpholin-2-yl-phenyl)-phenethyl-amine], the Ki on mouse TAAR1 turned out to be 0.0266 µM; at rat TAAR1, 0.108 µM.

For `Fc1cnc(Nc2ccc([C@H]3CNCCO3)cc2)nc1` [Example 14, (5-Fluoro-pyrimidin-2-yl)-((S)-4-morpholin-2-yl-phenyl)-amine], the Ki on mouse TAAR1 was 0.0122 µM; on rat TAAR1, 0.504 µM.

`CCc1cnc(Nc2ccc([C@H]3CNCCO3)cc2)nc1` [Example 15, (5-Ethyl-pyrimidin-2-yl)-((S)-4-morpholin-2-yl-phenyl)-amine]: the Ki on mouse TAAR1 was determined as 0.0028 µM; at rat TAAR1, 0.0466 µM.

As for `N#Cc1cnc(Nc2ccc([C@H]3CNCCO3)cc2)nc1` [Example 16, 2-((S)-4-Morpholin-2-yl-phenylamino)-pyrimidine-5-carbonitrile], the Ki at mouse TAAR1 turned out to be 0.0276 µM; on rat TAAR1, 0.448 µM.

Regarding `c1cc([C@H]2CNCCO2)ccc1Nc1ncc(C2CC2)cn1` [Example 17, (5-Cyclopropyl-pyrimidin-2-yl)-((S)-4-morpholin-2-yl-phenyl)-amine], the figures for the Ki at mouse TAAR1 and at rat TAAR1 were 0.0017 µM and 0.0131 µM, respectively.

Regarding `Cc1cnc(Nc2ccc([C@H]3CNCCO3)cc2)nc1` [Example 18, (5-Methyl-pyrimidin-2-yl)-((S)-4-morpholin-2-yl-phenyl)-amine], the Ki at mouse TAAR1 was 0.0054 µM; at rat TAAR1 it was 0.313 µM.

In the case of `FC(F)(F)c1cnc(Nc2ccc([C@H]3CNCCO3)cc2)nc1` [Example 19, ((S)-4-Morpholin-2-yl-phenyl)-(5-trifluoromethyl-pyrimidin-2-yl)-amine], the Ki at mouse TAAR1 turned out to be 0.0056 µM; on rat TAAR1 it was 0.0236 µM.

On to `COc1ccc(CNc2ccc([C@H]3CNCCO3)cc2)cc1` [Example 20, (4-Methoxy-benzyl)-((S)-4-morpholin-2-yl-phenyl)-amine], for which the results for the Ki on mouse TAAR1 and on rat TAAR1 were 0.0453 µM and 0.764 µM, respectively.

`CCCc1cnc(Nc2ccc([C@H]3CNCCO3)cc2)nc1` [Example 21, ((S)-4-Morpholin-2-yl-phenyl)-(5-propyl-pyrimidin-2-yl)-amine]: the Ki at mouse TAAR1 worked out at 0.002 µM; on rat TAAR1, 0.0245 µM.

Regarding `Cc1ccc(CNc2ccc([C@H]3CNCCO3)cc2)cc1` [Example 22, (4-Methyl-benzyl)-((S)-4-morpholin-2-yl-phenyl)-amine], the Ki on mouse TAAR1 was determined as 0.0375 µM; at rat TAAR1 it was 0.468 µM.

With `N#Cc1ccc(CNc2ccc([C@H]3CNCCO3)cc2)cc1` [Example 23, 4-[((S)-4-Morpholin-2-yl-phenylamino)-methyl]-benzonitrile], the Ki on mouse TAAR1 stood at 0.0514 µM; on rat TAAR1 it was 1.64 µM.

(Values after US8802673B2, “Heterocyclic amine derivatives” (Hoffmann-La Roche Inc, priority 2011, dated 2014).)
